Measured values: ChEMBL document CHEMBL4342414, “Activity of 2,6,9-trisubstituted purines as potent PDGFRα kinase inhibitors with antileukaemic activity” (Eur J Med Chem, 2019)
The source made the active and inactive calls. The rule behind the calls is not given here.

Tests used:
EOL1 [1] = experiment: Induction of cell cycle arrest at G1 phase in human FIP1L1-PDGFRA positive EOL-1 cells at 10 nM after 24 hrs by propidium iodide staining based flow cytometry; format: functional
K562 = experiment: Cytotoxicity against human K562 cells assessed as growth inhibition after 72 hrs by resazurin dye-based fluorescence analysis; format: functional; conditions: K562, 72 h
[2] = Cytotoxicity against human CEM cells assessed as growth inhibition after 72 hrs by resazurin dye-based fluorescence analysis; format: cell-based; conditions: CEM (CCRF-CEM) cells
[3] = Cytotoxicity against human BJ cells assessed as growth inhibition after 72 hrs by resazurin dye-based fluorescence analysis; format: cell-based
HCC827 = experiment: Cytotoxicity against human HCC827 cells assessed as growth inhibition after 72 hrs by resazurin dye-based fluorescence analysis; format: functional; conditions: HCC827, 72 h
EOL1 [4] = experiment: Cytotoxicity against FIP1L1-PDGFRA positive human EOL-1 cells assessed as growth inhibition after 72 hrs by resazurin dye-based fluorescence analysis; format: functional; conditions: EOL1, 72 h
EOL1 [5] = experiment: Induction of apoptosis in human FIP1L1-PDGFRA positive EOL-1 cells assessed as increase in cell accumulation at subG1 phase at >=10 nM after 24 hrs by propidium iodide staining based flow cytometry relative to control; format: functional

## N[C@H]1CC[C@H](Nc2nc(Nc3ccc(CN4CCOCC4)cc3)c3ncn(C4CCCC4)c3n2)CC1
EOL1 [1]
  Activity: Active
K562
  GI50: 1120 nM
[2]
  GI50 at 72 h: 820 nM
[3]
  GI50 at 72 h: 12300 nM
HCC827
  GI50: 1010 nM
EOL1 [4]
  GI50: 7 nM
EOL1 [5]
  Activity: Active
